Measurements published in ChEMBL document CHEMBL4699511, “Cedrol, a Sesquiterpene Alcohol, Enhances the Anticancer Efficacy of Temozolomide in Attenuating Drug Resistance via Regulation of the DNA Damage Response and MGMT Expression” (J Nat Prod, 2020).
Calls of active or inactive are those of the source. No cut-off for these calls is given here.

Experiments:
RG2 [1] = assay: Induction of apoptosis in rat RG2 cells assessed as increase in apoptotic body formation at 112.4 uM after 48 hrs in presence of TMZ by TUNEL assay; assay type: functional, cell-based
[2] = Toxicity in BALB/c mouse xenografted with DBTRG-05MG cells assessed as inflammatory cell infiltration score in liver at 75 mg/kg, sc co-treated with TMZ for 18 days by H and E staining-based bright field microscopic analysis; assay type: organism-based; details: in vivo, 432 h, time 18 day
DBTRG-05MG [3] = assay: Potentiation of TMZ-induced antitumor activity against human DBTRG-05MG cells xenografted in BALB/c nude mouse assessed as increase in survival time at 75 mg/kg, sc co-treated with TMZ for 18 days; assay type: functional, organism-based; details: time 18.0 day
DBTRG-05MG [4] = assay: Potentiation of TMZ-induced antitumor activity against human DBTRG-05MG cells xenografted in BALB/c nude mouse assessed as increase DNA damage at 75 mg/kg, sc co-treated with TMZ for 18 days by p.H2A.X staining based fluorescent immunocytochemistry method; assay type: functional, organism-based; details: time 18.0 day
RG2 [5] = assay: Induction of cell cycle arrest in rat RG2 cells assessed as accumulation at G2/M phase at 112.4 uM after 6 hrs in presence of TMZ by propidium iodide staining based flow cytometric analysis (reference value: 20.04 +/- 0.55%); assay type: functional
RG2 [6] = assay: Induction of apoptosis in rat RG2 cells assessed as increase in chromatin condensation at 112.4 uM after 48 hrs by TUNEL assay; assay type: functional, cell-based
RG2 [7] = assay: Inhibition of ERK phosphorylation at Tyr204 residues in rat RG2 cells at 112.4uM after 48 hrs in presence of TMZ by Western blot analysis (reference value: 1); assay type: cell-based
[8] = Inhibition of TMZ-induced drug resistance in rat RG2 cells assessed as MGMT expression at 112.4 uM after 48 hrs by Western blot analysis (reference value: 2); assay type: functional
RG2 [9] = assay: Synergistic cytotoxicity against rat RG2 cells assessed as combination index at 134.9 uM after 48 hrs in presence of 515.1 uM TMZ by MTT assay; assay type: functional
[10] = Synergistic cytotoxicity against rat CTX TNA2 cells assessed as combination index at 89.9 uM after 48 hrs in presence of 103 uM TMZ by MTT assay; assay type: cell-based; details: ctx tna2, 48 h
DBTRG-05MG [11] = assay: Induction of DNA damage in human DBTRG-05MG cells assessed as Chk2 phosphorylation at Thr68 residues at 112.4 uM after 48 hrs in presence of TMZ by Western blot analysis (reference value: 1); assay type: functional
DBTRG-05MG [12] = assay: Induction of cell cycle arrest in human DBTRG-05MG cells assessed as accumulation at G0/G1 phase at 112.4 uM after 6 hrs in presence of TMZ by propidium iodide staining based flow cytometric analysis (reference value: 47.16 +/- 1.55%); assay type: functional
RG2 [13] = assay: Induction of apoptosis in rat RG2 cells assessed as phosphorylated caspace-9 expression at 112.4 uM after 48 hrs by Western blot analysis (reference value: 1); assay type: functional
RG2 [14] = assay: Synergistic cytotoxicity against rat RG2 cells assessed as synergistic effect index at 112.4 uM after 48 hrs in presence of 103 uM TMZ by MTT assay; assay type: functional
DBTRG-05MG [15] = assay: Synergistic cytotoxicity against human DBTRG-05MG cells assessed as synergistic effect index at 89.9 uM after 48 hrs in presence of 206 uM TMZ by MTT assay; assay type: functional
DBTRG-05MG [16] = assay: Induction of cell cycle arrest in human DBTRG-05MG cells assessed as accumulation at S phase at 112.4 uM after 12 hrs by propidium iodide staining based flow cytometric analysis (reference value: 22.76 +/- 1.56%); assay type: functional
RG2 [17] = assay: Induction of apoptosis in rat RG2 cells assessed as phosphorylated PARP expression at 112.4 uM after 48 hrs in presence of TMZ by Western blot analysis (reference value: 1); assay type: functional
RG2 [18] = assay: Induction of DNA damage in rat RG2 cells assessed as ATM phosphorylation at ser1981 residues at 112.4 uM after 48 hrs by Western blot analysis (reference value: 1); assay type: functional
DBTRG-05MG [19] = assay: Synergistic cytotoxicity against human DBTRG-05MG cells assessed as combination index at 112.4 uM after 48 hrs in presence of 309 uM TMZ by MTT assay; assay type: functional
RG2 [20] = assay: Inhibition of TMZ-induced drug resistance in rat RG2 cells assessed as reduction in MGMT protein expression at 112.4 uM after 48 hrs by Immunohistochemistry method; assay type: functional, cell-based
DBTRG-05MG [21] = assay: Synergistic cytotoxicity against human DBTRG-05MG cells assessed as combination index at 134.9 uM after 48 hrs in presence of 309 uM TMZ by MTT assay; assay type: functional
DBTRG-05MG [22] = assay: Induction of apoptosis in human DBTRG-05MG cells assessed as increase in chromatin condensation at 112.4 uM after 48 hrs by TUNEL assay; assay type: functional, cell-based
DBTRG-05MG [23] = assay: Antitumour activity against human DBTRG-05MG cells xenografted in BALB/c nude mouse assessed as reduction in tumour growth at 5 mg/kg, ip for 5 days and measured every 2 days; assay type: functional, organism-based; details: time 5.0 day
DBTRG-05MG [24] = assay: Induction of cell cycle arrest in human DBTRG-05MG cells assessed as accumulation at S phase at 206 uM after 6 hrs by propidium iodide staining based flow cytometric analysis (reference value: 22.76 +/- 1.56%); assay type: functional
RG2 [25] = assay: Inhibition of AKT phosphorylation at S473 residues in rat RG2 cells at 206 uM after 48 hrs by Western blot analysis; assay type: cell-based
RG2 [26] = assay: Induction of DNA damage in rat RG2 cells assessed as H2A.X phosphorylation at ser139 at 206 uM after 48 hrs by Western blot analysis (reference value: 1); assay type: functional
DBTRG-05MG [27] = assay: Induction of DNA damage in human DBTRG-05MG cells assessed as ATR phosphorylation at ser428 residues at 206 uM after 48 hrs by Western blot analysis (reference value: 1); assay type: functional
RG2 [28] = assay: Inhibition of JNK phosphorylation at Thr183/Tyr185 residues in rat RG2 cells at 206 uM after 48 hrs by Western blot analysis (reference value: 1); assay type: cell-based
[29] = Effect on p38 expression in human DBTRG-05MG cells at 206 uM after 48 hrs by Western blot analysis (reference value: 1); assay type: functional
[30] = Effect on ERK expression in human DBTRG-05MG cells at 206 uM after 48 hrs by Western blot analysis (reference value: 1); assay type: functional
DBTRG-05MG [31] = assay: Induction of cell cycle arrest in human DBTRG-05MG cells assessed as accumulation at G2/M phase at 206 uM after 48 hrs by propidium iodide staining based flow cytometric analysis (reference value: 30.08 +/- 0.1%); assay type: functional
DBTRG-05MG [32] = assay: Induction of apoptosis in human DBTRG-05MG cells assessed as cleaved caspace-9 expression at 206 uM after 48 hrs by Western blot analysis (reference value: 1); assay type: functional
RG2 [33] = assay: Induction of cell cycle arrest in rat RG2 cells assessed as accumulation at G2/M phase at 206 uM after 24 hrs by propidium iodide staining based flow cytometric analysis (reference value: 20.04 +/- 0.55%); assay type: functional

For C[C@@H]1CC[C@H]2C(C)(C)[C@H]3C[C@@]12CC[C@@]3(C)O [CEDROL], the Activity (RG2 [1]) was “Active”, the Activity [2] was 1.23 and the Activity (DBTRG-05MG [3]) was “Active”. For the same compound, the Activity (DBTRG-05MG [4]) was “Active”, the Activity (RG2 [5]) was 19.39% and the Activity (RG2 [6]) was “Active”. The fold change (FC) (RG2 [7]) was 0.3, the “fold change (FC)” value [8] was 0.5 and the CI (RG2 [9]) was 1.02. The CI [10] was 1.24, the “fold change (FC)” value (DBTRG-05MG [11]) was 2.6 and the Activity (DBTRG-05MG [12]) was 49.17%. The “fold change (FC)” value (RG2 [13]) was 0.6, the Activity_index (RG2 [14]) was 0.83 and the Activity_index (DBTRG-05MG [15]) was 0.72. The Activity (DBTRG-05MG [16]) was 14.32%, the “fold change (FC)” value (RG2 [17]) was 0.5 and the “fold change (FC)” value (RG2 [18]) was 1. For the same compound, the CI (DBTRG-05MG [19]) was 0.57, the inhibition (RG2 [20]) was “Active” and the CI (DBTRG-05MG [21]) was 0.61. For the same compound, the Activity (DBTRG-05MG [22]) was “Active”.

In the case of Cn1nnc2c(C(N)=O)ncn2c1=O [TEMOZOLOMIDE], the Activity (DBTRG-05MG [23]) is reported as “Active”, the Activity (DBTRG-05MG [24]) is reported as 24.76% and the fold change (FC) (RG2 [25]) is reported as 0.5. For the same compound, the “fold change (FC)” value (RG2 [26]) was 1.1, the “fold change (FC)” value (DBTRG-05MG [27]) was 1.5 and the fold change (FC) (RG2 [28]) was 0.9. For the same compound, the “fold change (FC)” value [29] was 0.9, the “fold change (FC)” value [30] was 0.9 and the Activity (DBTRG-05MG [31]) was 53.64%. The “fold change (FC)” value (DBTRG-05MG [32]) was 1.8 and the Activity (RG2 [33]) was 31.81%.
